What was measured:
[1] = molecular target: T1, Nitric oxide synthase, inducible (Mus musculus, UniProt P29477); test: Inhibition of iNOS-mediated NO production in LPS-induced mouse BV2 cells; assay type: cell-based, BV-2
T1 sequence (P29477 whole entry): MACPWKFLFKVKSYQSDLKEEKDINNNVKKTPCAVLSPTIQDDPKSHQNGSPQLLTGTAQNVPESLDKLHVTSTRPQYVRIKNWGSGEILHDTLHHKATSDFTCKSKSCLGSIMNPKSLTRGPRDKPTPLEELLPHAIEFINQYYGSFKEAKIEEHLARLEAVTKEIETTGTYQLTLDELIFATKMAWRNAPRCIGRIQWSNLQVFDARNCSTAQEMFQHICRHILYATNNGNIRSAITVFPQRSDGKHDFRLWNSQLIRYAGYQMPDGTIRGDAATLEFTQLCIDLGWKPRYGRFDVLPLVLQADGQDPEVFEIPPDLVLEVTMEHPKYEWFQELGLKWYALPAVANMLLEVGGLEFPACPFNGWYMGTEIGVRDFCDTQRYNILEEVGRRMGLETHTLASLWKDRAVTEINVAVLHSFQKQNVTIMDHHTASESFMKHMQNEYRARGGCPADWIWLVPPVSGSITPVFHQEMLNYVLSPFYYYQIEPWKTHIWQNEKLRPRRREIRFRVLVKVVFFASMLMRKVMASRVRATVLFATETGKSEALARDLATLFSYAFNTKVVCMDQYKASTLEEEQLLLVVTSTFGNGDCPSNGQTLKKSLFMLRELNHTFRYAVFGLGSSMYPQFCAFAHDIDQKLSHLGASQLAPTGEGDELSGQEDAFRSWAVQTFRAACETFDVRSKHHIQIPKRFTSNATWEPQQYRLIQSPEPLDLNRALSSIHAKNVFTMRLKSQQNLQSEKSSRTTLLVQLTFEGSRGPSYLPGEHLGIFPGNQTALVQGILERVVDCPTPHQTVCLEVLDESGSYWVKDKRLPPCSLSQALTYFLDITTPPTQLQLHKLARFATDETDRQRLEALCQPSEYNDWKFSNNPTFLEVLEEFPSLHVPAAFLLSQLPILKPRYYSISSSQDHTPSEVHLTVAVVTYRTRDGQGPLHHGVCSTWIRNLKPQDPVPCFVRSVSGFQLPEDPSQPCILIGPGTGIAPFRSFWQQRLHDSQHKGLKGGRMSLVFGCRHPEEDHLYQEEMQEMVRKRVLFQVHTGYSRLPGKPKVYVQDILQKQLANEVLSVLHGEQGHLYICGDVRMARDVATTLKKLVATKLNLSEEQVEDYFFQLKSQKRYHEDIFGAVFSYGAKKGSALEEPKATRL

BV-2 = test: Inhibition of NADPH oxidase in LPS-induced mouse BV2 cells assessed as NOX-dependent ROS production at 50 uM; assay type: cell-based
[2] = test system: Radical scavenging activity; test: Antioxidant activity assessed as DPPH radical scavenging activity at 50 uM; assay type: functional

Structure (SMILES)	IC50 [1]	inhibition (BV-2)	Activity [2]
C[C@@H](O)/C=C/[C@@]1(O)C(C)(C)C[C@H](O)C[C@@]1(C)O	> 50 µM	25.2%	
CC1(C)CC[C@]2(C)CC[C@]3(C)C(=CC[C@@H]4[C@@]5(C)CCC(=O)C(C)(C)[C@@H]5CC[C@]43C)[C@@H]2C1	> 50 µM	0%	
C[C@@H]1O[C@@H](Oc2c(-c3ccc(O)cc3)oc3cc(O)cc(O)c3c2=O)[C@H](O)[C@H](O)[C@H]1O		6%	
CC[C@H](/C=C/[C@@H](C)[C@H]1CC[C@H]2C3=CC[C@H]4C[C@@H](O)CC[C@]4(C)[C@H]3CC[C@]12C)C(C)C	> 50 µM	8.7%	
CC1(C)CC[C@]2(C)CC=C3[C@]4(C)CC[C@H]5C(C)(C)[C@@H](O)CC[C@]5(C)[C@H]4CC[C@@]3(C)[C@@H]2C1 [TARAXEROL]	24.2 µM	11.6%	
CC1(C)CC[C@]2(C)CC=C3[C@]4(C)CC[C@H]5C(C)(C)C(=O)CC[C@]5(C)[C@H]4CC[C@@]3(C)[C@@H]2C1 [TARAXERONE]	46.5 µM	5.2%	
CC(=O)O[C@H]1CC[C@@H]2C(=CC[C@H]3[C@@]2(C)CC[C@@]2(C)[C@@H]4CC(C)(C)CC[C@]4(C)CC[C@]32C)C1(C)C [GLUTINOL ACETATE]	> 50 µM	10.8%	
Cc1c(C)c2c(c(C)c1O)CCC(C)(C(=O)O)O2 (stereo unspecified)			85.7%
CC1(C)CC[C@]2(C)CC[C@]3(C)[C@H]4CC=C5[C@@H](CCC(=O)C5(C)C)[C@]4(C)CC[C@@]3(C)[C@@H]2C1 [GLUTINONE]	> 50 µM	6.6%	
C[C@H]1C(=O)CC[C@@H]2[C@]1(C)CC[C@H]1[C@@]2(C)CC[C@@]2(C)[C@@H]3CC(C)(C)CC[C@]3(C)CC[C@]12C [FRIEDELINE]	> 50 µM	4.2%	
O=C(O)c1cc(O)c(O)c(O)c1 [GALLIC ACID]	> 50 µM	21.5%	85.6%
CO[C@H]1[C@H](O)[C@@H](O)[C@@H](O)[C@H](O)[C@@H]1O [METHYLINOSITOL]	> 50 µM	16.5%	
c1ccc2c(c1)[I+]c1ccccc1-2		85.1%	
C[C@@H]1[C@@H](O)CC[C@]2(C)[C@H]3CC/C(=C\C(=O)O)[C@H](C)[C@@H]3[C@@H](O)C(=O)[C@@H]12 [NORERYTHROFORDIN A]	> 50 µM	8.6%	
CC1(C)CC[C@]2(C)CC[C@]3(C)[C@H]4CC=C5[C@@H](CC[C@H](O)C5(C)C)[C@]4(C)CC[C@@]3(C)[C@@H]2C1 [GLUTINOL]	> 50 µM	19.2%	
CC[C@H](CC[C@@H](C)[C@H]1CC[C@H]2[C@@H]3[C@@H](O)C=C4C[C@@H](O)CC[C@]4(C)[C@H]3CC[C@]12C)C(C)C	> 50 µM	17.1%	
C=CC(C)(C)c1[nH]c2c(CC=C(C)C)cc(CC=C(C)C)cc2c1C[C@@H]1NC(=O)[C@H](C)NC1=O [ECHINULIN]	> 50 µM	8.8%	
CC(=O)O[C@H]1CC[C@]2(C)[C@H]3CC=C4[C@@H]5CC(C)(C)CC[C@]5(C)CC[C@@]4(C)[C@]3(C)CC[C@H]2C1(C)C [beta-AMYRIN ACETATE]	> 50 µM	9.2%	
CC[C@H](CC[C@@H](C)[C@H]1CC[C@H]2[C@@H]3C[C@@H](O)C4=C[C@@H](O)CC[C@]4(C)[C@H]3CC[C@]12C)C(C)C	> 50 µM	1.6%	

— ChEMBL document CHEMBL1152257, “New diterpenoids and the bioactivity of Erythrophleum fordii” (Bioorg Med Chem, 2008)
